Laboratory results as given in the NIST ThermoML archive (doi:10.1021/acs.jced.8b00662).
± gives the expanded uncertainty stated by the source.

Assay: xn = mol fraction of the nth substance listed
Conditions: 100 kPa, Liquid; for mass density: Vibrating tube method; for viscosity: Falling or rolling sphere viscometry

CC(C)C1CCCCC1 [(1-methylethyl)cyclohexane] + OCC1CC1
Conditions | mass density [kg/m3] | viscosity [mPa·s]
318.15 K, x1 = 0.0996 | 871.02 ± 1.1 | –
318.15 K, x1 = 0.1991 | 853.46 ± 1 | –
318.15 K, x1 = 0.2995 | 838.79 ± 1 | –
318.15 K, x1 = 0.3996 | 826.54 ± 1 | –
318.15 K, x1 = 0.4993 | 816.09 ± 0.99 | –
318.15 K, x1 = 0.5997 | 807.02 ± 0.98 | –
318.15 K, x1 = 0.7011 | 799.17 ± 0.97 | –
318.15 K, x1 = 0.7967 | 792.54 ± 0.96 | –
318.15 K, x1 = 0.9026 | 786.41 ± 0.95 | –
318.15 K, x1 = 1 | 782.59 ± 0.95 | –
323.15 K, x1 = 0.0996 | 866.78 ± 1.1 | –
323.15 K, x1 = 0.1003 | – | 1.525 ± 0.033
323.15 K, x1 = 0.1991 | 849.2 ± 1 | 1.312 ± 0.028
323.15 K, x1 = 0.2995 | 834.53 ± 1 | 1.151 ± 0.025
323.15 K, x1 = 0.3996 | 822.28 ± 1 | 1.027 ± 0.022
323.15 K, x1 = 0.4993 | 811.84 ± 0.98 | 0.932 ± 0.02
323.15 K, x1 = 0.5997 | 802.8 ± 0.97 | –
323.15 K, x1 = 0.619 | – | 0.849 ± 0.018
323.15 K, x1 = 0.7011 | 794.99 ± 0.96 | 0.802 ± 0.017
323.15 K, x1 = 0.7967 | 788.4 ± 0.96 | 0.764 ± 0.016
323.15 K, x1 = 0.9026 | 782.33 ± 0.95 | 0.735 ± 0.016
323.15 K, x1 = 1 | 778.66 ± 0.95 | 0.738 ± 0.016
328.15 K, x1 = 0.0996 | 862.47 ± 1 | –
328.15 K, x1 = 0.1003 | – | 1.372 ± 0.029
328.15 K, x1 = 0.1991 | 844.88 ± 1 | 1.189 ± 0.025
328.15 K, x1 = 0.2995 | 830.2 ± 1 | 1.05 ± 0.022
328.15 K, x1 = 0.3996 | 817.96 ± 0.99 | 0.943 ± 0.02
328.15 K, x1 = 0.4993 | 807.55 ± 0.98 | 0.861 ± 0.018
328.15 K, x1 = 0.5997 | 798.54 ± 0.97 | –
328.15 K, x1 = 0.619 | – | 0.791 ± 0.017
328.15 K, x1 = 0.7011 | 790.77 ± 0.96 | 0.75 ± 0.016
328.15 K, x1 = 0.7967 | 784.24 ± 0.95 | 0.717 ± 0.015
328.15 K, x1 = 0.9026 | 778.25 ± 0.95 | 0.692 ± 0.015
328.15 K, x1 = 1 | 774.72 ± 0.94 | 0.698 ± 0.015
333.15 K, x1 = 0.0996 | 858.1 ± 1 | –
333.15 K, x1 = 0.1003 | – | 1.239 ± 0.026
333.15 K, x1 = 0.1991 | 840.5 ± 1 | 1.082 ± 0.023
333.15 K, x1 = 0.2995 | 825.83 ± 1 | 0.961 ± 0.021
333.15 K, x1 = 0.3996 | 813.6 ± 0.99 | 0.869 ± 0.019
333.15 K, x1 = 0.4993 | 803.22 ± 0.97 | 0.799 ± 0.017
333.15 K, x1 = 0.5997 | 794.24 ± 0.96 | –
333.15 K, x1 = 0.619 | – | 0.738 ± 0.016
333.15 K, x1 = 0.7011 | 786.52 ± 0.95 | 0.702 ± 0.015
333.15 K, x1 = 0.7967 | 780.04 ± 0.95 | 0.674 ± 0.014
333.15 K, x1 = 0.9026 | 774.14 ± 0.94 | 0.654 ± 0.014
333.15 K, x1 = 1 | 770.77 ± 0.94 | 0.661 ± 0.014
338.15 K, x1 = 0.0996 | 853.67 ± 1 | –
338.15 K, x1 = 0.1003 | – | 1.124 ± 0.024
338.15 K, x1 = 0.1991 | 836.06 ± 1 | 0.988 ± 0.021
338.15 K, x1 = 0.2995 | 821.41 ± 0.99 | 0.883 ± 0.019
338.15 K, x1 = 0.3996 | 809.2 ± 0.98 | 0.804 ± 0.017
338.15 K, x1 = 0.4993 | 798.85 ± 0.97 | 0.743 ± 0.016
338.15 K, x1 = 0.5997 | 789.91 ± 0.96 | –
338.15 K, x1 = 0.619 | – | 0.69 ± 0.015
338.15 K, x1 = 0.7011 | 782.24 ± 0.95 | 0.66 ± 0.014
338.15 K, x1 = 0.7967 | 775.82 ± 0.94 | 0.636 ± 0.014
338.15 K, x1 = 0.9026 | 770.01 ± 0.94 | 0.619 ± 0.013
338.15 K, x1 = 1 | 766.81 ± 0.93 | 0.628 ± 0.013
343.15 K, x1 = 0.0996 | 849.17 ± 1 | –
343.15 K, x1 = 0.1003 | – | 1.023 ± 0.022
343.15 K, x1 = 0.1991 | 831.57 ± 1 | 0.905 ± 0.019
343.15 K, x1 = 0.2995 | 816.93 ± 0.99 | 0.815 ± 0.017
343.15 K, x1 = 0.3996 | 804.75 ± 0.97 | 0.746 ± 0.016
343.15 K, x1 = 0.4993 | 794.44 ± 0.96 | 0.693 ± 0.015
343.15 K, x1 = 0.5997 | 785.54 ± 0.95 | –
343.15 K, x1 = 0.619 | – | 0.648 ± 0.014
343.15 K, x1 = 0.7011 | 777.93 ± 0.94 | 0.622 ± 0.013
343.15 K, x1 = 0.7967 | 771.58 ± 0.94 | 0.601 ± 0.013
343.15 K, x1 = 0.9026 | 765.88 ± 0.93 | 0.587 ± 0.013
343.15 K, x1 = 1 | 762.84 ± 0.93 | 0.598 ± 0.013
